Experimental data reported in patent publication US11485742B2, “2-azaspiro[3.4]octane derivatives as M4 agonists” (NOVARTIS AG, priority 2019, dated 2022).

Tests used:
Type in all cases: cell-based
[1] = biological target: T1, human cloned CHRM5 receptor (Homo sapiens, UniProt P08912); test: CHRM5 Ca++ Flux Assay (M5_CHO cells, agonist mode); details: for M5 FDSS PA % / Emax: Percent Activity (PA) measured to EC100 of Carbachol; for EC50: agonist mode, geometric mean if tested more than once, read-out: M5 FDSS EC50; for Emax: read-out: M5 FDSS PA %
T1 construct: expressed in transfected cells; host or cells: CHO (M5_CHO)
T1 sequence (P08912 1-532): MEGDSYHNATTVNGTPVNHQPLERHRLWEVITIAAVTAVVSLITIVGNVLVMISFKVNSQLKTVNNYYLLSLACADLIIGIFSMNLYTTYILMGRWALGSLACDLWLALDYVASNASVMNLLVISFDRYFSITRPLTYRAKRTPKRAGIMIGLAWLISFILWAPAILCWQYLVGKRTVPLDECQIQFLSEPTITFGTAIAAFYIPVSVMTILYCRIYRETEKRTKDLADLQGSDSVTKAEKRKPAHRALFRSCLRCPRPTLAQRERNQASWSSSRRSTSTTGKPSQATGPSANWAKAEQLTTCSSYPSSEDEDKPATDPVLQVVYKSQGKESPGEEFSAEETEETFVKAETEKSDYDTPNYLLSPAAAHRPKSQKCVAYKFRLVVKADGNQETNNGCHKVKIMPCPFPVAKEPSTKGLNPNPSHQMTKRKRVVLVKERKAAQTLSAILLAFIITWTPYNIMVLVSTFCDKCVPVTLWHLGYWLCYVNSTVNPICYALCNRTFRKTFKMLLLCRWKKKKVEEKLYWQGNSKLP
Summary of the method: (§1)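 CHO-K1 cells stably expressing human M3 or M5 receptor, dye-loaded ≥1 h, treated with 11-point compound doses in triplicate; Ca++ flux read over 3 min (FDSS). Agonist-mode four-parameter fit; percent activity relative to carbachol EC100; repeat tests reported as geometric mean.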

[2] = biological target: T2, human cloned CHRM3 receptor (Homo sapiens, UniProt P20309); test: CHRM3 Ca++ Flux Assay (M3_CHO cells, agonist mode); details: for M3 FDSS PA % / Emax: Percent Activity (PA) measured to EC100 of Carbachol; for EC50: agonist mode, geometric mean if tested more than once, read-out: M3 FDSS EC50; for Emax: read-out: M3 FDSS PA %
T2 construct: expressed in transfected cells; host or cells: CHO-K1 (M3_CHO)
Summary of the method: as §1

[3] = biological target: T3, human cloned CHRM2 receptor (Homo sapiens, UniProt P08172); test: CHRM2 Ca++ Flux Assay (M2_CHO cells, agonist mode); details: M2 CHO cells; for EC50: agonist mode, geometric mean if tested more than once, read-out: M2 FDSS EC50; for M2 FDSS PA % / Emax: Percent Activity (PA) measured to EC100 of Carbachol; for Emax: read-out: M2 FDSS PA %
T3 construct: expressed in transfected cells; host or cells: CHO-K1 (M2_CHO)
T3 sequence (P08172 1-466): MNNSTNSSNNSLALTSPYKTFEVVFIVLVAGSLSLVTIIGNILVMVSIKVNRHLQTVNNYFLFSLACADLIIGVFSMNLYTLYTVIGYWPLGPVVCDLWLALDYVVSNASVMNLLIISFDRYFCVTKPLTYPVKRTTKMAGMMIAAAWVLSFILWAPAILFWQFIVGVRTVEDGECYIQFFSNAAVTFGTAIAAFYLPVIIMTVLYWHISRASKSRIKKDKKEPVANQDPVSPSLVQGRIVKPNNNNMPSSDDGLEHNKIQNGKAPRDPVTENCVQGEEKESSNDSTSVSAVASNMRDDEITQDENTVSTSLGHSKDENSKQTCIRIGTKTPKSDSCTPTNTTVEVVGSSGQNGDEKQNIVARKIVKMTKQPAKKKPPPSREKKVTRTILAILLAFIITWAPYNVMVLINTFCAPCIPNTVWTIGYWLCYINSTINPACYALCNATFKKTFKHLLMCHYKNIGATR
Summary of the method: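 CHO-K1 cells stably expressing human CHRM2 were plated overnight at 12K cells/well and loaded with Ca++ dye for 1–2 h. They were then held 60 minutes in HBSS −Ca/−Mg, 20 mM HEPES, 2.5 mM probenecid, 20 μM ATP. Agonist-mode Ca++ flux was read over 3 minutes. Four-parameter fits of triplicates gave percent activity relative to carbachol EC100.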

T2 sequence (P20309 whole entry): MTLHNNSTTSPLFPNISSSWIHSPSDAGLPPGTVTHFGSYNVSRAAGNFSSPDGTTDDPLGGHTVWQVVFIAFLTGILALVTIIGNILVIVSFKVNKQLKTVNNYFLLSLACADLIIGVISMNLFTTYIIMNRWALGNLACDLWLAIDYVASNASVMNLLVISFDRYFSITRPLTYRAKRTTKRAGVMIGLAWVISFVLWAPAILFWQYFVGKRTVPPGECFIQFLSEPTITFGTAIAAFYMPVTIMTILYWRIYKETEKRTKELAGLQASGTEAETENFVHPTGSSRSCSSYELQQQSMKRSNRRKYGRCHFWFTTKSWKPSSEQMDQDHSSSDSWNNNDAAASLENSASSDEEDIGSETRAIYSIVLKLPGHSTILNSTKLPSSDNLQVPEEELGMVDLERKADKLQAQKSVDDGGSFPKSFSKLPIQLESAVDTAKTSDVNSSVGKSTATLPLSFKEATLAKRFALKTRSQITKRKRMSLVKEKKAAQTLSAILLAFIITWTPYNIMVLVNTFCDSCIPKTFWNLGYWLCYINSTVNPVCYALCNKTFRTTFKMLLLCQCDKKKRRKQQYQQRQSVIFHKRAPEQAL

| Compound | M5 FDSS PA % [1] | EC50 [1] | M3 FDSS PA % [2] | EC50 [2] | EC50 [3] | M2 FDSS PA % [3] | Emax [1] | Emax [2] | Emax [3] |
| --- | --- | --- | --- | --- | --- | --- | --- | --- | --- |
| c1ccc([C@@H]2CCOC2)c(C2CCN([C@@H]3COC4(C3)CN(c3nnco3)C4)CC2)c1 (single isomer, unassigned) [Example 3B, (S)-2-(1,3,4-oxadiazol-2-yl)-7-(4-(2-((S)-tetrahydrofuran-3-yl)phenyl)piperidin-1-yl)-5-oxa-2-azaspiro[3.4]octane or (S)-2-(1,3,4-oxadiazol-2-yl)-7-(4-(2-((R)-tetrahydrofuran-3-yl)phenyl)piperidin-1-yl)-5-oxa-2-azaspiro[3.4]octane] | 0% | > 25 µM | 0% | > 25 µM | 1.5 µM | 31% | – | – | – |
| Fc1ccc(OC2CC3(COC3)C2)c(C2CCN([C@@H]3COC4(C3)CN(c3ncco3)C4)CC2)c1 [Example 4G, (S)-7-(4-(2-((2-oxaspiro[3.3]heptan-6-yl)oxy)-5-fluorophenyl)piperidin-1-yl)-2-(oxazol-2-yl)-5-oxa-2-azaspiro[3.4]octane] | – | > 25 µM | – | > 25 µM | 13.1 µM | – | 0% | 0% | 58% |
| CC1(C)C[C@@H](Oc2ccc(F)cc2C2CCN([C@@H]3COC4(C3)CN(c3nnco3)C4)CC2)CO1 (single isomer, unassigned) [Example 2N, (S)-7-(4-(2-(((R)-5,5-dimethyltetrahydrofuran-3-yl)oxy)-5-fluorophenyl)piperidin-1-yl)-2-(1,3,4-oxadiazol-2-yl)-5-oxa-2-azaspiro[3.4]octane or (S)-7-(4-(2-(((S)-5,5-dimethyltetrahydrofuran-3-yl)oxy)-5-fluorophenyl)piperidin-1-yl)-2-(1,3,4-oxadiazol-2-yl)-5-oxa-2-azaspiro[3.4]octane] | 0% | > 25 µM | 0% | > 25 µM | 4.24 µM | 20% | – | – | – |
| COc1ccc(F)cc1C1CCN([C@@H]2COC3(C2)CN(c2ncco2)C3)CC1 [Example 4I, (S)-7-(4-(5-fluoro-2-methoxyphenyl)piperidin-1-yl)-2-(oxazol-2-yl)-5-oxa-2-azaspiro[3.4]octane] | – | > 25 µM | – | > 25 µM | > 25 µM | – | 0% | 0% | 0% |
| Fc1ccc(O[C@H]2CCCOC2)c(C2CCN([C@@H]3COC4(C3)CN(c3nnco3)C4)CC2)c1 (single isomer, unassigned) [Example 2R, (S)-7-(4-(5-fluoro-2-(((S)-tetrahydro-2H-pyran-3-yl)oxy)phenyl)piperidin-1-yl)-2-(1,3,4-oxadiazol-2-yl)-5-oxa-2-azaspiro[3.4]octane or (S)-7-(4-(5-fluoro-2-(((R)-tetrahydro-2H-pyran-3-yl)oxy)phenyl)piperidin-1-yl)-2-(1,3,4-oxadiazol-2-yl)-5-oxa-2-azaspiro[3.4]octane] | 0% | > 25 µM | 0% | > 25 µM | 0.259 µM | 42% | – | – | – |
| CC(C)(O)[C@H]1C[C@H](Oc2ccc(F)cc2C2CCN([C@@H]3COC4(C3)CN(c3nnco3)C4)CC2)C1 (single isomer, unassigned) [Example 2W, 2-((1S,3r)-3-(2-(1-((S)-2-(1,3,4-oxadiazol-2-yl)-5-oxa-2-azaspiro[3.4]octan-7-yl)piperidin-4-yl)-4-fluorophenoxy)cyclobutyl)propan-2-ol or 2-((1R,3s)-3-(2-(1-((S)-2-(1,3,4-oxadiazol-2-yl)-5-oxa-2-azaspiro[3.4]octan-7-yl)piperidin-4-yl)-4-fluorophenoxy)cyclobutyl)propan-2-ol] | 0% | > 25 µM | 0% | > 25 µM | 3.08 µM | 29% | – | – | – |
| Fc1ccc(OC[C@H]2CCO2)c(C2CCN([C@@H]3COC4(C3)CN(c3nncs3)C4)CC2)c1.O=C(O)C(F)(F)F (single isomer, unassigned) [Example 2D, (S)-7-(4-(5-fluoro-2-(((R)-oxetan-2-yl)methoxy)phenyl)piperidin-1-yl)-2-(1,3,4-thiadiazol-2-yl)-5-oxa-2-azaspiro[3.4]octane trifluoroacetate or (S)-7-(4-(5-fluoro-2-(((S)-oxetan-2-yl)methoxy)phenyl)piperidin-1-yl)-2-(1,3,4-thiadiazol-2-yl)-5-oxa-2-azaspiro[3.4]octane trifluoroacetate] | 0% | > 25 µM | 0% | > 25 µM | 0.446 µM | 50% | – | – | – |
| c1ccc(C2CCN([C@@H]3COC4(C3)CN(c3nnco3)C4)CC2)c(CC2CCOCC2)c1 [Example 3G, (S)-2-(1,3,4-oxadiazol-2-yl)-7-(4-(2-((tetrahydro-2H-pyran-4-yl)methyl)phenyl)piperidin-1-yl)-5-oxa-2-azaspiro[3.4]octane] | – | > 25 µM | – | > 25 µM | 3.66 µM | – | 0% | 0% | 16% |
| c1ccc(C2CCN([C@@H]3COC4(C3)CN(c3nnco3)C4)CC2)c(C2CCOCC2)c1 [Example 3C, (S)-2-(1,3,4-oxadiazol-2-yl)-7-(4-(2-(tetrahydro-2H-pyran-4-yl)phenyl)piperidin-1-yl)-5-oxa-2-azaspiro[3.4]octane] | – | > 25 µM | – | > 25 µM | 4.82 µM | – | 0% | 0% | 34% |

Next, values leading:

| M5 FDSS PA % [1] | EC50 [1] | M3 FDSS PA % [2] | EC50 [2] | EC50 [3] | M2 FDSS PA % [3] | Emax [1] | Emax [2] | Emax [3] | Compound |
| --- | --- | --- | --- | --- | --- | --- | --- | --- | --- |
| – | > 25 µM | – | > 25 µM | > 25 µM | – | 0% | 0% | 0% | COCCOc1ccc(F)cc1C1CCN([C@@H]2COC3(C2)CN(c2ncns2)C3)CC1 [Example 5D, (S)-7-(4-(5-fluoro-2-(2-methoxyethoxy)phenyl)piperidin-1-yl)-2-(1,2,4-thiadiazol-5-yl)-5-oxa-2-azaspiro[3.4]octane] |
| – | > 25 µM | – | > 25 µM | 0.415 µM | – | 0% | 0% | 34% | Fc1cc(O[C@@H]2CCOC2)c(C2CCN([C@@H]3COC4(C3)CN(c3nncs3)C4)CC2)cc1F [Example 5M, (S)-7-(4-(4,5-difluoro-2-(((R)-tetrahydrofuran-3-yl)oxy)phenyl)piperidin-1-yl)-2-(1,3,4-thiadiazol-2-yl)-5-oxa-2-azaspiro[3.4]octane] |
| – | > 25 µM | – | > 25 µM | 1.88 µM | – | 0% | 0% | 13% | Fc1cc(OC2COC2)c(C2CCN([C@@H]3COC4(C3)CN(c3ncco3)C4)CC2)cc1F [Example 4Q, (S)-7-(4-(4,5-difluoro-2-(oxetan-3-yloxy)phenyl)piperidin-1-yl)-2-(oxazol-2-yl)-5-oxa-2-azaspiro[3.4]octane] |
| – | 2.53 µM | – | 11.8 µM | 0.073 µM | – | 35% | 15% | 51% | Cc1nc(COc2ccccc2C2CCN([C@@H]3COC4(C3)CN(c3nncs3)C4)CC2)no1 [Example 5F, (S)-7-(4-(2-((5-methyl-1,2,4-oxadiazol-3-yl)methoxy)phenyl)piperidin-1-yl)-2-(1,3,4-thiadiazol-2-yl)-5-oxa-2-azaspiro[3.4]octane] |
